Format in all cases: in vivo
Experiment [1] relates to Alopecurus myosuroides (ALOMY). The experiment can be described thus: Test Example 1 pre-emergence herbicidal activity. The conditions noted are these: Alopecurus myosuroides, 480 h, rate 250 g/ha, evaluated 20 days later, read-out: Pre-emergence activity ALOMY (100=total damage to plant; 0=no damage to plant). A digest of the protocol: (§1)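 Plants sown in standard soil in pots; sprayed 1 day after sowing (pre-emergence) or after 10 days' glasshouse cultivation (post-emergence) with aqueous spray of compound formulated in acetone plus Emulsogen EL/N-methylpyrrolidone/dipropylene glycol monomethyl ether/X-77 solution. Damage scored 0–100 (100 = total damage) after 20 days (pre) or 15 days (post).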

Experiment [2] has as its system Avena fatua (AVEFA). The experiment can be described thus: Test Example 1 pre-emergence herbicidal activity. Particulars: Avena fatua, 480 h, rate 250 g/ha, evaluated 20 days later, read-out: Pre-emergence activity AVEFA (100=total damage to plant; 0=no damage to plant). In a few lines:
as §1

Experiment [3] deals with Digitaria sanguinalis (DIGSA). The experiment can be described thus: Test Example 1 pre-emergence herbicidal activity. The conditions noted are these: Digitaria sanguinalis, 480 h, rate 250 g/ha, evaluated 20 days later, read-out: Pre-emergence activity DIGSA (100=total damage to plant; 0=no damage to plant). A digest of the protocol: as §1
Experiment [4] concerns Echinochloa crus-galli (ECHCG). The experiment can be described thus: Test Example 1 pre-emergence herbicidal activity. Particulars: Echinochloa crus-galli, 480 h, rate 250 g/ha, evaluated 20 days later, read-out: Pre-emergence activity ECHCG (100=total damage to plant; 0=no damage to plant). A digest of the protocol: as §1
For experiment [5], the system named is Lolium perenne (LOLPE). The experiment can be described thus: Test Example 1 pre-emergence herbicidal activity. Particulars: Lolium perenne, 480 h, rate 250 g/ha, evaluated 20 days later, read-out: Pre-emergence activity LOLPE (100=total damage to plant; 0=no damage to plant). A digest of the protocol: as §1
Experiment [6] has as its system Setaria faberi (SETFA). The experiment can be described thus: Test Example 1 pre-emergence herbicidal activity. Particulars: Setaria faberi, 480 h, rate 250 g/ha, evaluated 20 days later, read-out: Pre-emergence activity SETFA (100=total damage to plant; 0=no damage to plant). A digest of the protocol: as §1
Experiment [7] has as its system Alopecurus myosuroides (ALOMY). The experiment can be described thus: Test Example 1 post-emergence herbicidal activity. The conditions noted are these: 360 h, rate 125 g/ha, evaluated 15 days later, read-out: Post-emergence activity ALOMY (100=total damage to plant; 0=no damage to plant). A digest of the protocol:
as §1

The test system of experiment [8] is Avena fatua (AVEFA). The experiment can be described thus: Test Example 1 post-emergence herbicidal activity. The conditions noted are these: 360 h, rate 125 g/ha, evaluated 15 days later, read-out: Post-emergence activity AVEFA (100=total damage to plant; 0=no damage to plant). A digest of the protocol: as §1
The subject of experiment [9] is Digitaria sanguinalis (DIGSA). The experiment can be described thus: Test Example 1 post-emergence herbicidal activity. The conditions noted are these: 360 h, rate 125 g/ha, evaluated 15 days later, read-out: Post-emergence activity DIGSA (100=total damage to plant; 0=no damage to plant). In a few lines: as §1
Experiment [10] deals with Echinochloa crus-galli (ECHCG). The experiment can be described thus: Test Example 1 post-emergence herbicidal activity. Particulars: 360 h, rate 125 g/ha, evaluated 15 days later, read-out: Post-emergence activity ECHCG (100=total damage to plant; 0=no damage to plant). In a few lines: as §1
For experiment [11], the system named is Lolium perenne (LOLPE). The experiment can be described thus: Test Example 1 post-emergence herbicidal activity. The conditions noted are these: 360 h, rate 125 g/ha, evaluated 15 days later, read-out: Post-emergence activity LOLPE (100=total damage to plant; 0=no damage to plant). In a few lines: as §1
In experiment [12] the test system is Setaria faberi (SETFA). The experiment can be described thus: Test Example 1 post-emergence herbicidal activity. The conditions noted are these: 360 h, rate 125 g/ha, evaluated 15 days later, read-out: Post-emergence activity SETFA (100=total damage to plant; 0=no damage to plant). In a few lines: as §1

Structures are written as SMILES.

Turning to `CCc1cc(C)cc(CC)c1C1=C(O)[C@H]2[C@@H](C1=O)[C@@H]1CC[C@@]2(CO)O1` [Example T14], the pest or weed control at 250 g/ha in experiment [1] turned out to be 90%; with Avena fatua (AVEFA) [2], 90%; in experiment [3], 70%; in [4] it was 90%; in the experiment with Lolium perenne (LOLPE) [5], 100%; with Setaria faberi (SETFA) [6] it was 100%. Besides, the pest or weed control at 125 g/ha stood at 80% in experiment [7]; 80% with Avena fatua (AVEFA) [8]; 90% in experiment [9]; 100% in experiment [10]; 80% in the experiment on Lolium perenne (LOLPE) [11]; 100% with Setaria faberi (SETFA) [12].

Take `CCOC(=O)C1=NOC2C1[C@@H]1O[C@H]2[C@H]2C(O)=C(c3c(CC)cc(C)cc3CC)C(=O)[C@H]21` (mixture of isomers) [Example T16]: the pest or weed control at 250 g/ha in [1] was found to be 0%; in the experiment on Avena fatua (AVEFA) [2] it was 10%; in experiment [3], 0%; in experiment [4], 0%; in the experiment on Lolium perenne (LOLPE) [5] it was 0%; in the experiment on Setaria faberi (SETFA) [6] it was 10%. The pest or weed control at 125 g/ha in [7] was 40%; with Avena fatua (AVEFA) [8], 20%; in experiment [9], 0%; in [10] it was 30%; in the experiment on Lolium perenne (LOLPE) [11], 50%; in the experiment with Setaria faberi (SETFA) [12], 0%.

For `CCc1cc(C)cc(CC)c1C1=C(O)[C@@H]2[C@@H]3O[C@@H](C[C@H]3c3ccc(Cl)c(Cl)c3)[C@@H]2C1=O` [Example T150], the pest or weed control at 250 g/ha in [1] was 0%; in the experiment on Avena fatua (AVEFA) [2], 0%; in experiment [3], 0%; in experiment [4] it was 40%; in the experiment with Lolium perenne (LOLPE) [5] it was 30%; in the experiment on Setaria faberi (SETFA) [6], 0%. The pest or weed control at 125 g/ha was 60% in experiment [7]; 60% in the experiment with Avena fatua (AVEFA) [8]; 30% in experiment [9]; 100% in experiment [10]; 40% in the experiment with Lolium perenne (LOLPE) [11]; 90% with Setaria faberi (SETFA) [12].

Regarding `CCc1cc(C)cc(CC)c1C1=C(O)[C@@H]2[C@@H]3O[C@@H](C[C@H]3c3ccccc3F)[C@@H]2C1=O` (racemic) [Example T170], the pest or weed control at 250 g/ha in experiment [1] stood at 80%; in the experiment on Avena fatua (AVEFA) [2] it was 40%; in experiment [3], 70%; in [4], 80%; with Lolium perenne (LOLPE) [5] it was 90%; in the experiment with Setaria faberi (SETFA) [6], 70%. The pest or weed control at 125 g/ha in experiment [7] worked out at 80%; with Avena fatua (AVEFA) [8] it was 70%; in experiment [9], 40%; in experiment [10] it was 100%; with Lolium perenne (LOLPE) [11], 80%; with Setaria faberi (SETFA) [12], 40%.

For `CC1=C2CCC(C)C[C@@]23O[C@@H]1C1C(=O)C(c2c(C)cc(C)cc2C)=C(O)C13` (stereo partly drawn) [Example T60], the pest or weed control at 250 g/ha in experiment [1] was determined as 0%; with Avena fatua (AVEFA) [2] it was 40%; in experiment [3], 30%; in [4] it was 30%; in the experiment with Lolium perenne (LOLPE) [5] it was 10%; in the experiment with Setaria faberi (SETFA) [6], 10%. For the same molecule, the pest or weed control at 125 g/ha in experiment [7] was 10%; with Avena fatua (AVEFA) [8], 0%; in experiment [9], 50%; in experiment [10], 0%; in the experiment with Lolium perenne (LOLPE) [11], 0%; with Setaria faberi (SETFA) [12] it was 40%.

For `CCc1cc(C)cc(CC)c1C1=C(O)[C@@H]2[C@@H]3O[C@@H](C[C@H]3c3ccc(F)c(Cl)c3)[C@@H]2C1=O` [Example T149], the pest or weed control at 250 g/ha in [1] was 90%; in the experiment on Avena fatua (AVEFA) [2], 60%; in [3], 70%; in experiment [4], 90%; with Lolium perenne (LOLPE) [5], 80%; in the experiment on Setaria faberi (SETFA) [6], 80%. For the same molecule, the pest or weed control at 125 g/ha came out at 80% in [7]; 90% in the experiment on Avena fatua (AVEFA) [8]; 80% in [9]; 100% in [10]; 70% in the experiment with Lolium perenne (LOLPE) [11]; 70% in the experiment on Setaria faberi (SETFA) [12].

For `CCc1cc(C)cc(CC)c1C1=C(O)[C@@H]2[C@@H]3O[C@@H](C[C@H]3c3cccc(C(F)(F)F)c3)[C@@H]2C1=O` [Example T154], the pest or weed control at 250 g/ha in experiment [1] came out at 70%; in the experiment on Avena fatua (AVEFA) [2], 50%; in experiment [3], 70%; in [4] it was 100%; in the experiment with Lolium perenne (LOLPE) [5], 80%; in the experiment on Setaria faberi (SETFA) [6], 70%. The pest or weed control at 125 g/ha was found to be 90% in [7]; 60% in the experiment on Avena fatua (AVEFA) [8]; 70% in [9]; 100% in [10]; 60% in the experiment on Lolium perenne (LOLPE) [11]; 70% in the experiment with Setaria faberi (SETFA) [12].

Turning to `CCc1cc(C)cc(CC)c1C1=C(O)[C@@H]2[C@@H]3O[C@@H](C[C@H]3c3cc(F)ccc3C)[C@@H]2C1=O` [Example T147], the pest or weed control at 250 g/ha in experiment [1] was 40%; in the experiment with Avena fatua (AVEFA) [2], 0%; in experiment [3], 40%; in [4] it was 90%; with Lolium perenne (LOLPE) [5], 40%; with Setaria faberi (SETFA) [6], 60%. The pest or weed control at 125 g/ha in experiment [7] was 90%; in the experiment with Avena fatua (AVEFA) [8], 90%; in experiment [9], 100%; in experiment [10], 90%; in the experiment on Lolium perenne (LOLPE) [11], 40%; in the experiment with Setaria faberi (SETFA) [12], 70%.

Take `Cc1cc(C)c(C2=C(O)[C@H]3[C@@H](C2=O)[C@]2(C)CC(C)[C@@]3(C)O2)c(C)c1` (stereo partly drawn) [Example T125]: the pest or weed control at 250 g/ha in [1] turned out to be 70%; in the experiment with Avena fatua (AVEFA) [2], 70%; in experiment [3], 100%; in experiment [4], 100%; with Lolium perenne (LOLPE) [5], 100%; in the experiment with Setaria faberi (SETFA) [6], 100%. In addition, the pest or weed control at 125 g/ha in experiment [7] came out at 80%; with Avena fatua (AVEFA) [8], 70%; in [9] it was 80%; in experiment [10], 90%; in the experiment with Lolium perenne (LOLPE) [11], 70%; with Setaria faberi (SETFA) [12], 80%.

Take `CCc1cc(C)cc(CC)c1C1=C(OC(=O)C(C)C)[C@H]2[C@@H](C1=O)[C@@H]1CC[C@H]2O1` [Example P26]: the pest or weed control at 250 g/ha in experiment [1] stood at 100%; in the experiment on Avena fatua (AVEFA) [2], 90%; in experiment [3] it was 100%; in experiment [4] it was 100%; in the experiment with Lolium perenne (LOLPE) [5], 100%; in the experiment on Setaria faberi (SETFA) [6], 100%. Further, the pest or weed control at 125 g/ha in [7] is 100%; in the experiment with Avena fatua (AVEFA) [8] it was 100%; in [9], 100%; in [10] it was 100%; in the experiment with Lolium perenne (LOLPE) [11], 90%; in the experiment with Setaria faberi (SETFA) [12] it was 100%.

The record behind these values is patent US8754242B2, “Herbicides” (Syngenta Crop Protection LLC, priority 2007, dated 2014).
